The test system of data set [1] is B. subtilis ATCC 6051. The class given is cell-based, Bacillus subtilis. As to conditions: ATCC 6051, 24 h. How it is done:
(§1) For our experiments, we used strains obtained from the American Type Culture Collection (ATCC), including P. aeruginosa PAO1, E. coli K12 parental type, S. aureus ATCC 6538P, and B. subtilis ATCC 6051. The MIC assays were performed as reported by Wiegand et al. using the broth microdilution method in 96-well round-bottom microplates.[35] The MIC was defined as the lowest concentration at which no bacterial growth was observed. Briefly, bacteria were inoculated into Mueller Hinton broth (MHB), cultured overnight at 37 °C, and transferred to a new MHB until the exponential phase of growth. The bacteria were diluted to 1 × 10^6 CFU/mL using MHB, and the peptides were prepared in double-distilled water (DDW) filtered over a 0.25 μm filter. To 50 μL of the MHB medium containing two fold serially diluted peptides with concentrations ranging from 1.56 to 50 μM were added 50 μL aliquots of the bacterial solution. The plates were incubated for 24 h at 37 °C. The positive and negative controls used were cultured without peptides (100% growth) and uninoculated MHB broth (0% growth). The bacterial growth inhibition was evaluated by measuring the absorbance at 600 nm using a microplate autoreader (SynersyMx, Biotek).

Data set [2] concerns S. aureus ATCC 6538P. The data set is classed as cell-based, Staphylococcus aureus. As to conditions: ATCC 6538, 24 h. How it is done:
as §1

Data set [3] concerns P. aeruginosa PAO1. The data set is classed as cell-based, Pseudomonas aeruginosa. The conditions noted are these: PAO1, 24 h. How it is done: as §1
In data set [4] the test system is trypsin. As to conditions: trypsin 10 μg/mL, peptide 100 μM in PBS pH 7.4, after 30 min of incubation; RP-HPLC peak area relative to t0. How it is done:
Proteolysis was measured by RP-HPLC using the following parameters, as reported.[33] Trypsin with a final concentration of 10 μg/mL was added to a solution of the peptides in PBS (pH 7.4) (100 μM). The reaction was monitored over time using reversed-phase HPLC (C18 reversed-phase Bio-Rad analytical column, 250 × 4 mm, 300 Å pore size, and 7 μm particle size). The column was eluted in 40 min using a linear gradient of 10–90% acetonitrile in water, both containing 0.1% trifluoroacetic acid (v/v), at a flow rate of 0.6 mL/min.

In brackets after ≈: the same amount, converted by molar mass. Starred links: 1 amine or outer side, 2 acyl side, 3 side chain; linkers in the order of their positions; H or OH if unused. Positions of bridges follow the written chain, without caps; N, C: chain ends. Non-standard residues stand in square brackets, D forms with d. Residues, ends and D or L forms follow the SMILES beside them. Groups on a side chain read outwards from the residue. Chains are numbered I, II in the order given. εLys = N[C@@H](CCCCN[*:1])C(=O)[*:2]

For `CC(C)C[C@H](NC(=O)[C@H](CC(C)C)NC(=O)[C@H](CCCCN)NC(=O)[C@H](CC(C)C)NC(=O)[C@H](CC(C)C)NC(=O)[C@H](CCCCN)NC(=O)[C@H](CCCCN)NC(=O)[C@H](CC(C)C)NC(=O)[C@H](CC(C)C)NC(=O)[C@H](CCCCN)NC(=O)[C@H](CCCCN)NC(=O)[C@H](CC(C)C)NC(=O)[C@H](CC(C)C)NC(=O)[C@@H](N)CCCCNC(=O)[C@@H](N)CC(C)C)C(N)=O` [Amp1EP2] (H-K(Leu)LLKKLLKKLLKLL-NH2), the minimum inhibitory concentration (MIC) in data set [1], in data set [2] and in data set [3] was 1.56 µM (≈ 2.82 µg/mL) each time.
Regarding `CC(C)C[C@H](NC(=O)[C@H](CC(C)C)NC(=O)[C@H](CCCCN)NC(=O)[C@H](CC(C)C)NC(=O)[C@H](CC(C)C)NC(=O)[C@H](CCCCN)NC(=O)[C@H](CCCCN)NC(=O)[C@H](CC(C)C)NC(=O)[C@H](CC(C)C)NC(=O)[C@H](CCCCN)NC(=O)[C@@H](N)CCCCNC(=O)[C@H](CC(C)C)NC(=O)[C@H](CC(C)C)NC(=O)[C@H](CCCCN)NC(=O)[C@@H](N)CC(C)C)C(N)=O` [Amp1EP5] (H-K([Leu-Leu-Lys-Leu])KLLKKLLKLL-NH2), the MIC came to 1.56 µM (≈ 2.82 µg/mL) in data set [1], 3.12 µM (≈ 5.63 µg/mL) in data set [2] and 3.12 µM (≈ 5.63 µg/mL) in data set [3].
For the compound `CC(C)C[C@H](NC(=O)[C@H](CC(C)C)NC(=O)[C@H](CCCCN)NC(=O)[C@H](CC(C)C)NC(=O)[C@H](CC(C)C)NC(=O)[C@H](CCCCN)NC(=O)[C@H](CCCCN)NC(=O)[C@H](CC(C)C)NC(=O)[C@H](CC(C)C)NC(=O)[C@@H](N)CCCCNC(=O)[C@H](CCCCN)NC(=O)[C@H](CC(C)C)NC(=O)[C@H](CC(C)C)NC(=O)[C@H](CCCCN)NC(=O)[C@@H](N)CC(C)C)C(N)=O` [Amp1EP6] (I: H-KLLKKLLKLL-NH2 / II: H-LKLLK; amide I:1-II:C), the MIC in data set [1], in data set [2] and in data set [3] was 1.56 µM (≈ 2.82 µg/mL) in each case.
`CC(C)C[C@H](NC(=O)[C@H](CC(C)C)NC(=O)[C@H](CCCCN)NC(=O)[C@H](CC(C)C)NC(=O)[C@H](CC(C)C)NC(=O)[C@H](CCCCN)NC(=O)[C@@H](N)CCCCNC(=O)[C@H](CC(C)C)NC(=O)[C@H](CC(C)C)NC(=O)[C@H](CCCCN)NC(=O)[C@H](CCCCN)NC(=O)[C@H](CC(C)C)NC(=O)[C@H](CC(C)C)NC(=O)[C@H](CCCCN)NC(=O)[C@@H](N)CC(C)C)C(N)=O` [Amp1EP9] (H-LKLLKKLL[εLys]KLLKLL-NH2): the MIC in data set [1] stood at 3.12 µM (≈ 5.63 µg/mL); in data set [2], 6.25 µM (≈ 11.3 µg/mL); in data set [3], 3.12 µM (≈ 5.63 µg/mL). In addition, the “peptide remaining intact with trypsin” value in data set [4] is 40%.
Consider `CC(C)C[C@H](NC(=O)[C@H](CC(C)C)NC(=O)[C@H](CCCCN)NC(=O)[C@H](CC(C)C)NC(=O)[C@H](CC(C)C)NC(=O)[C@@H](N)CCCCNC(=O)[C@H](CCCCN)NC(=O)[C@H](CC(C)C)NC(=O)[C@H](CC(C)C)NC(=O)[C@H](CCCCN)NC(=O)[C@H](CCCCN)NC(=O)[C@H](CC(C)C)NC(=O)[C@H](CC(C)C)NC(=O)[C@H](CCCCN)NC(=O)[C@@H](N)CC(C)C)C(N)=O` [Amp1EP10] (H-LKLLKKLLK[εLys]LLKLL-NH2), for which the MIC in data set [1], in data set [2] and in data set [3] was 3.12 µM (≈ 5.63 µg/mL) throughout.
For the compound `CC(C)C[C@H](NC(=O)[C@H](CC(C)C)NC(=O)[C@@H](N)CCCCNC(=O)[C@H](CC(C)C)NC(=O)[C@H](CC(C)C)NC(=O)[C@H](CCCCN)NC(=O)[C@H](CCCCN)NC(=O)[C@H](CC(C)C)NC(=O)[C@H](CC(C)C)NC(=O)[C@H](CCCCN)NC(=O)[C@H](CCCCN)NC(=O)[C@H](CC(C)C)NC(=O)[C@H](CC(C)C)NC(=O)[C@H](CCCCN)NC(=O)[C@@H](N)CC(C)C)C(N)=O` [Amp1EP13] (H-LKLLKKLLKKLL[εLys]LL-NH2), the MIC in data set [1], in data set [2] and in data set [3] was 1.56 µM (≈ 2.82 µg/mL) each time.
With `CC(C)C[C@H](NC(=O)[C@H](CC(C)C)NC(=O)[C@H](CCCCN)NC(=O)[C@H](CC(C)C)NC(=O)[C@H](CC(C)C)NC(=O)[C@H](CCCCN)NC(=O)[C@H](CCCCN)NC(=O)[C@H](CC(C)C)NC(=O)[C@H](CC(C)C)NC(=O)[C@H](CCCCN)NC(=O)[C@H](CCCCN)NC(=O)[C@H](CC(C)C)NC(=O)[C@H](CC(C)C)NC(=O)[C@H](CCCCN)NC(=O)[C@@H](N)CC(C)C)C(N)=O` [Amp1L, reference compound] (H-LKLLKKLLKKLLKLL-NH2), the MIC in data set [1], in data set [2] and in data set [3] was 12.5 µM (≈ 22.6 µg/mL) each time. Besides, the “peptide remaining intact with trypsin” value in data set [4] is reported as “neither the parental peptide Amp1L nor any of the other modified peptides were detected”.

The values above are taken from paper PMC8958506, “Site-Specific Isopeptide Bond Formation: A Powerful Tool for the Generation of Potent and Nontoxic Antimicrobial Peptides” (Journal of Medicinal Chemistry, 2022).
